Measured values reported in patent US20110288052A1, “NOVEL COMPOUNDS, PHARMACEUTICAL COMPOSITIONS CONTAINING SAME, AND METHODS OF USE FOR SAME” (priority 2008, published 2011).
In brackets after ≈: the same amount, converted by molar mass. Like-named read-outs stand apart in the source and are kept apart here.

Tests used:
Assay type in all cases: cell-based
[1] = tested on: MCF-7 human breast cancer cells (fatty acid oxidation pathway activity); assay: Fatty acid oxidation ([14C]palmitate to acid soluble products); settings: for Emax at 0.098 µg/mL: at 0.098 μg/ml; for FAO SC 150: concentration leading to 150% of control acid soluble products, Neg = threshold not reached; for Emax at 1.56 µg/mL: at 1.56 μg/ml; for Emax at 6.25 µg/mL: at 6.25 μg/ml
Experimental: Measurement of Fatty Acid Oxidation and Determination of SC150 of Compounds This assay measures the degradation of [^14C]palmitate into acid soluble products and is a measure of fatty acid oxidation pathway activity in vitro. It is utilized to measure fatty acid oxidation in vitro. MCF-7 human breast cancer cells cultured as above, are plated at 2.5×10^5 cells per well in 24-well plates. Following overnight incubation, the compounds to be tested, solubilized in DMSO, are added at […], 0.39, 1.56, 6.25, 25, and 100 μg/ml in triplicate, with lower concentrations tested if necessary. DMSO is added to triplicate wells for a vehicle control. C75 is run at 5 and 10 μg/ml in triplicate as positive controls. After 1 hour of incubation, medium is removed 100 uM of [^14C] palmitate in cyclodextran and 200 uM carnitine in serum free medium (250 μl volume) is added to each well. After 30 minutes of additional incubation, the reaction is stopped by addition of 2.6N HClO4. Contents of each well are transferred to 1.5 ml Eppendorf tubes and 4N KOH is added. The tubes are incubated for 30 minutes at 60° C. 1 M NaAcetate and 3N H2SO4 is added to each tube and vortexed. The tubes are centrifuged at 1000 rpm for 5 minutes at RT. 250 μl of the supernatant is transferred to a 2 ml eppendorf tube. To each tube is added: 938 μl of chloroform:methanol (1:1), 468 μl chloroform and 281 μl of deionized water. The tubes are vortexed and centrifuged at 1000 rpm for 5 minutes at RT. 750 μl of the upper phase is transferred into a scintillation vial 5 ml of scintillant is added and vials are counted for 1 minute for ^14C. The Beckman Scintillation counter calculates the average cpm values for triplicates. The SC150 for the compounds is defined as the concentration of drug leading to a 150% increase in production of acid soluble products of [^14C] palmitate as compared to untreated controls. This is determined by plotting the average cpm for each inhibitor concentration tested, performing linear regression and computing the best-fit line, r^2 values, and 95% confidence intervals. The average cpm values are computed by the Beckman scintillation counter (Model LS6500) for each compound concentration. Computation of linear regression, best-fit line, r^2, and 95% confidence intervals are calculated using Prism Version 3.0 (Graph Pad Software). If a compound fails to achieve this 150% threshold it is considered negative. The maximum value achieved is also reported (FAO Max).

[2] = tested on: Enterococcus faecalis (ATCC # 29212); assay: Broth microdilution antimicrobial assay, E. faecalis; settings: for MIC: Enterococcus faecalis, ATCC29212
Experimental: Antimicrobial Properties A broth microdilution assay is used to assess the antimicrobial activity of the compounds. Compounds are tested at twofold serial dilutions, and the concentration that inhibits visible growth (OD600 at 10% of control) is defined as the MIC. Microorganisms tested include Staphylococcus aureus (ATCC # 29213), Enterococcus faecalis (ATCC # 29212), Pseudomonas aerpginosa (ATCC # 27853), and Escherichia coli (ATCC # 25922). The assay is performed in two growth media, Mueller Hinton Broth and Trypticase Soy Broth.
A blood (Tsoy/5% sheep blood) agar plate is inoculated from frozen stocks maintained in T soy broth containing 10% glycerol and incubated overnight at 37° C. Colonies are suspended in sterile broth so that the turbidity matches the turbidity of a 0.5 McFarland standard. The inoculum is diluted 1:10 in sterile broth (Mueller Hinton or Trypticase soy) and 195 μl is dispensed per well of a 96-well plate. The compounds to be tested, dissolved in DMSO, are added to the wells in 5 μl volume at the following concentrations: 25, 12.5, 6.25, 3.125, 1.56 and 0.78 μg/ml in duplicate. Additional concentrations are tested if required. 5 μl of DMSO added to duplicate wells are the vehicle control. Serial dilutions of positive control compounds, vancomycin (E. faecalis and S. aureus) and tobramycin (E. coli and P. aerpginosa), are included in each run.
After 24 hours of incubation at 37° C., plates are read at OD600 on a Molecular Devices SpectraMax Plus Spectrophotometer. Average OD600 values are computed using SOFTmax Pro Software (Molecular Devices) and MIC values are determined by linear regression analysis using Prism version 3.02 (Graph Pad Software, San Diego). The MIC is defined as the concentration of compound required to produce an OD600 reading equivalent to 10% of the vehicle control reading.

OVCAR3 cells = assay: XTT cytotoxicity assay, OVCAR3 (OV); settings: Homo sapiens
Experimental: (§1) XTT Cytotoxicity Assay The XTT assay is a non-radioactive alternative for the [^51Cr] release cytotoxicity assay. XTT is a tetrazolium salt that is reduced to a formazan dye only by metabolically active, viable cells. The reduction of XTT is measured spectrophotometrically as OD490-OD650. To measure the cytotoxicity of specific compounds against cancer cells, 9×10^3 MCF-7 human breast cancer cells (shown in the tables as “(M)”), obtained from the American Type Culture Collection are plated per well in 96 well plates in DMEM medium with 10% fetal bovine serum, insulin, penicillin, and streptomycin. Following overnight culture at 37° C. and 5% CO2, the compounds to be tested, dissolved in DMSO, are added to the wells in 1 μl volume at the following concentrations: 80, 40, 20, 10, 5, 2.5, 1.25, and 0.625 μg/ml in triplicate. Additional concentrations are tested if required. 1 μl of DMSO is added to triplicate wells are the vehicle control. C75 is run at 40, 20, […], and 5 μg/ml in triplicate as positive controls. After 72 hours of incubation, cells are incubated for 4 hours with the XTT reagent as per manufacturer's instructions (Cell Proliferation Kit II (XTT) Roche). Plates are read at OD490 and OD650 on a Molecular Devices SpectraMax Plus Spectrophotometer. Three wells containing the XTT reagent without cells serve as the plate blank. XTT data are reported as OD490-OD650. Averages and standard error of the mean are computed using SOFTmax Pro software (Molecular Dynamics). The IC50 for the compounds is defined as the concentration of drug leading to a 50% reduction in OD490-OD650 compared to controls. The OD490-OD650 are computed by the SOFTmax PRO software (Molecular Devices) for each compound concentration. IC50 is calculated by linear regression, plotting the FAS activity as percent of control versus drug concentrations. Linear regression, best-fit line, r^2, and 95% confidence intervals are determined using Prism Version 3.0 (Graph Pad Software). The test was also run against OVCAR3 cells (“OV”), and HCT116 cells (“H”).

HCT116 cells = assay: XTT cytotoxicity assay, HCT116 (H); settings: Homo sapiens, HCT-116
Experimental: as §1

[3] = Homo sapiens, MCF7, read-out: FAO Max

Row | Compound | FAO SC 150 [1] | EF/MH (MIC) ([2]; Mueller Hinton Broth) | EF/Tsoy (MIC) ([2]; Trypticase Soy Broth) | IC50 (OVCAR3 cells; OVCAR-3) [µg/mL] | IC50 (HCT116 cells) [µg/mL] | Emax at 1.56 µg/mL [1, 3] [%] | other results
1 | CCCCCCCCC1(C)SC(=O)C=C1OCC(=O)Nc1ccc2c(c1)OCO2 (centres unmarked) | Neg | Neg | Neg | 9.3 (≈ 22.2 µM) | 14.8 (≈ 35.3 µM) | – | Emax at 0.098 µg/mL [1, 3]: 45%
2 | CCCCCCCC[C@]1(C)SC(=O)C=C1OCC(=O)Nc1ccccc1OC(F)(F)F | Neg | – | – | > 80 | 78.8 (≈ 171 µM) | – | Emax at 25 µg/mL ([1]; Homo sapiens, MCF7, at 25 μg/ml, read-out: FAO Max): 116%
3 | CCCCCCCCC1(C)OC(=O)C=C1OCC(=O)Nc1ccc(Cl)cc1 (centres unmarked) | Neg | – | Neg | 9.2 (≈ 23.4 µM) | 4.8 (≈ 12.2 µM) | – | Emax at 0.39 µg/mL ([1]; Homo sapiens, MCF7, at 0.39 μg/ml, read-out: FAO Max): 95%; MIC ([2]; Mueller Hinton Broth, read-out: EF/MH (MIC)): 70 µg/mL (≈ 178 µM)
4 | CCCCCCCCC1(C)SC(=O)C=C1OCC(=O)Nc1cccc(OC(F)(F)F)c1 (centres unmarked) | Neg | – | – | 11.6 (≈ 25.2 µM) | 8 (≈ 17.4 µM) | 122 | –
5 | CCCCCCCCC1(C)SC(=O)C=C1OCC(=O)Nc1ccc(OC(F)(F)F)cc1 (centres unmarked) | – | Neg | Neg | 3.3 (≈ 7.18 µM) | 3.5 (≈ 7.62 µM) | – | –
6 | CCCCCCCCC1(C)SC(=O)C=C1OCC(=O)Nc1ccc(SC)cc1 (centres unmarked) | Neg | – | – | 16.9 (≈ 40.1 µM) | 11.5 (≈ 27.3 µM) | – | Emax at 6.25 µg/mL [1, 3]: 100%
7 | CCCCCCCCOc1ccc(NC(=O)COC2=CC(=O)SC2(C)CCCCCCCC)cc1 (centres unmarked) | Neg | Neg | Neg | 67 (≈ 133 µM) | > 80 | – | Emax at 0.098 µg/mL [1, 3]: 97%
8 | CCCCCCCCC1(C)SC(=O)C=C1OCC(=O)Nc1ccc(Cl)cc1 (centres unmarked) | Neg | Neg | – | 9.2 ± 5 (≈ 22.4 µM) | 5.9 ± 2.7 (≈ 14.4 µM) | 106 | MIC ([2]; Trypticase Soy Broth, read-out: EF/Tsoy (MIC)): 44 µg/mL (≈ 107 µM)
9 | CCCCCCCCC1(C)SC(=O)C=C1OCC(=O)Nc1ccc(Oc2ccc(Cl)cc2)cc1 (centres unmarked) | Neg | Neg | Neg | 5 (≈ 9.96 µM) | 6.3 (≈ 12.5 µM) | – | Emax at 6.25 µg/mL [1, 3]: 109%
10 | CCCCCCCCC1(C)SC(=O)C=C1OCC(=O)Nc1ccc(Cl)cc1Cl (centres unmarked) | Neg | – | – | – | 13.1 (≈ 29.5 µM) | 141 | IC50 (OVCAR3 cells; OVCAR-3, unit given as ml): 64.5 µg/mL (≈ 145 µM)
11 | CCCCCCCC[C@]1(C)SC(=O)C=C1OCC(=O)Nc1ccccc1C(F)(F)F | Neg | – | – | 24.1 (≈ 54.3 µM) | 15.6 (≈ 35.2 µM) | 105 | –
12 | CCCCCCCCC1(C)SC(=O)C=C1OCC(=O)Nc1ccccc1 (centres unmarked) | Neg | Neg | Neg | 12.1 (≈ 32.2 µM) | 7.1 (≈ 18.9 µM) | – | Emax at 0.098 µg/mL [1, 3]: 122%
13 | CCCCCCCCC1(C)SC(=O)C=C1OCC(=O)Nc1ccc(-c2cccs2)cc1 (centres unmarked) | 61.9 µg/mL | Neg | Neg | > 80 | > 80 | – | Emax at 100 µg/mL ([1]; Homo sapiens, MCF7, at 100 μg/ml, read-out: FAO Max): 168%
14 | CCCCCCCCC1(C)SC(=O)C=C1OCC(=O)Nc1cccc(C(F)(F)F)c1 (centres unmarked) | Neg | – | – | 11 (≈ 24.8 µM) | 7.6 (≈ 17.1 µM) | – | Emax at 0.395 µg/mL ([1]; Homo sapiens, MCF7, at 0.395 μg/ml, read-out: FAO Max): 75%
15 | CCCCCCCCC1(C)SC(=O)C=C1OCC(=O)Nc1ccccc1SC (centres unmarked) | Neg | – | – | 43.8 (≈ 104 µM) | 31.4 (≈ 74.5 µM) | – | Emax at 6.25 µg/mL [1, 3]: 114%
16 | CCCCCCCCC1(C)SC(=O)C=C1OCC(=O)Nc1ccccc1N1CCCCC1 (centres unmarked) | Neg | Neg | Neg | 15.5 (≈ 33.8 µM) | 13.1 (≈ 28.6 µM) | 119 | –
17 | CCCCCCCCC1(C)SC(=O)C=C1OCC(=O)Nc1ccc(Cl)cc1C(F)(F)F (centres unmarked) | 1.9 µg/mL | Neg | Neg | 24 (≈ 50.2 µM) | 14 (≈ 29.3 µM) | 141 | –
